Measurements published in patent US20060052456A1, “Kynurenine 3-hydroxylase inhibitors for the treatment of diabetes by increasing the number of islets of langerhans cells” (MERCK PATENT GMBH, priority 2003, published 2006).
Marks after values point to notes of the source that are not given here. One block for each compound: values may come before it.

Key:
hepatocytes = experiment: Hepatic glucose production in vitro in isolated hepatocytes (Table IV); type: cell-based, Wistar rats; conditions: for inhibition of hepatic glucose production in vitro (in words): isolated rat hepatocytes
Procedure: The following two methods were used:
(§1) 1) The hepatocytes are cultured for 16 to 18 hours in DMEM medium in the presence of AMP cyclase/dexamethasone at respective concentrations of 5×10^−5 M and 5×10^−7 M, with preincubation of the products at the test doses. After washing in pH 7.4 PBS buffer, the cells are incubated for three hours at 37° C. in a Krebs/AMPc/DEX buffer at the abovementioned concentrations. 0.1 μM insulin is used as reference substance. Two identical experiments are performed (Table III-1).
(§2) After washing in pH 7.4 PBS buffer, the cells are incubated for two hours at 37° C. in a Krebs buffer free of glucose and of insulin, containing lactate/pyruvate (10/1 mM) in the presence or absence of the test compounds. 10 μM MICA (5-methoxyindole-2-carboxylic acid) is used as reference substance. Two identical experiments are performed (Table III-2).
The protein assay is performed on the rest of the incubation medium via the Lowry method (BIO-RAD Dc protein assay, BIO-RAD 5000116).
(§3) The results are expressed as nmoles of glucose produced per […] of proteins. The statistical test used is the t test.

kynurenine 3-hydroxylase = target: T1, kynurenine 3-hydroxylase (Rattus norvegicus, UniProt O88867); experiment: Inhibitory activity on kynurenine 3-hydroxylase in rat liver homogenate; type: biochemical; conditions: mean of two experiments, read-out: IC50, kynurenine 3-hydroxylase inhibition
T1 construct: from tissue; host or cells: rat liver homogenate (12000 rpm pellet, resuspended)
T1 sequence (O88867 whole entry): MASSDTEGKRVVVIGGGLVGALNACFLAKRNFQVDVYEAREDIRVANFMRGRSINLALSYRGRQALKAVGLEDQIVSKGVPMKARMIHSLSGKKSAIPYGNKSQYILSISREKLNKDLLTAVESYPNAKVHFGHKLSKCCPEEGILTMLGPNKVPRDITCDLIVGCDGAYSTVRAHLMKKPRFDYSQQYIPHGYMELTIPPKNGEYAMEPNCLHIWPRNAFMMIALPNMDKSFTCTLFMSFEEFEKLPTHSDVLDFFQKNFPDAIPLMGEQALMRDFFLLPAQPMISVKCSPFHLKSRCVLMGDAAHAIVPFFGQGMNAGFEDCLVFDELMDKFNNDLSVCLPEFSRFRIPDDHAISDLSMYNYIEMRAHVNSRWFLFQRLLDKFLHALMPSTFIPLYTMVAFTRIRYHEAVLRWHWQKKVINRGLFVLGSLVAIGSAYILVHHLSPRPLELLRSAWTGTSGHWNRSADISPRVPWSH
Procedure: Study of the Inhibitory Activity on Kynurenine 3-Hydroxylase in Rat Liver
Rat livers are homogenised (1:8 weight/volume) in a buffer solution comprising: 0.25 M sucrose; 50 mM pH 7.4 Tris; 1 mM EDTA; and 1 mM DTT.
The homogenates are centrifuged for 10 minutes at 12000 rpm. The pellets are resuspended in the buffer solution described above (1:2 weight/volume).
The kynurenine 3-hydroxylase inhibition is determined by incubating 10 μL of the homogenate with NADPH (2 mM), kynurenine (100 μM) and various concentrations of the test compounds in a final volume of 100 μL at 37° C. for 5 minutes.
The compounds are tested at concentrations of between 1 μM and 300 μM. 3,4-Dimethoxy-N-[4-(3-nitrophenyl)thiazol-2-yl]benzenesulfonamide is a compound from the company Hoffmann-LaRoche (Basle, see J. Med. Chem., 40 (1997), 4738). 30H-Kynurenine was tested according to the protocol described by Carpendo et al. (Neuroscience, 61 (1994), 237-244).
Each of the experiments is repeated once and the IC50 values (in μmol/L) are calculated and given in the form of a mean of these two experiments.
Results concerning representative examples of family Ih are given in Table II below, in which is indicated the measurement of the percentage of remaining kynurenine 3-hydroxylase activity relative to the control (100%).

[1] = tested on: perfused isolated pancreases from N0 STZ diabetic rats; experiment: Secretion of insulin and glucagon in perfused isolated pancreases from N0 STZ diabetic rats; type: cell-based; conditions: perfused diabetic rat pancreas; absence of glucose, then 16.5 mM glucose; glucose-dependent
Source text: The results are expressed as the mean ±SEM (standard error of mean) of several experiments. The statistical test used is the Scheffé test.

N0STZ rats = experiment: Antidiabetic activity in N0STZ rats (glycaemia after oral treatment); type: in vivo, rat; conditions: for percentage change in the glycaemia relative to D0, D4 (20 mg) / percentage change in the glycaemia relative to D0, D4 (200 mg): four days of treatment; for percentage change in the glycaemia relative to D0, D1 (20 mg) / percentage change in the glycaemia relative to D0, D1 (200 mg): one day of treatment
Procedure: Study of the Antidiabetic Activity in N0STZ Rats
The antidiabetic activity of the compounds of the formulae (I) and (II) orally was determined on an experimental model of non-insulin-dependent diabetes, induced in rats with steptozotocin.
The model of non-insulin-dependent diabetes is obtained in the rats by means of a neonatal injection (on the day of birth) of steptozotocin.
The diabetic rats used are eight weeks old. The animals are housed, from the day of birth to the day of the experiment, in an animal house at a regulated temperature of 21 to 22° C. and subjected to a fixed cycle of light (from 7 a.m. to 7 p.m.) and darkness (from 7 p.m. to 7 a.m.). Their food consisted of a maintenance diet, and water and food were given “ad libitum”, with the exception of fasting two hours before the tests, during which period the food is removed (post-absorptive state).
The rats are treated orally for one (D1) or four (D4) days with the test product. Two hours after the final administration of the product and 30 minutes after anaesthetising the animals with pentobarbital sodium (Nembutal®), a 300 μL blood sample is taken from the end of the tail.
The results presented below are expressed as a percentage change in the glycaemia on D1 and D4 (number of days of treatment) relative to D0 (before the treatment).

primary hepatocytes [2] = experiment: Hepatic glucose production stimulated by AMPc/DEX in primary hepatocytes (Table III-1); type: cell-based, Wistar rats
Procedure: (§4) The hepatocytes are isolated from the liver of Wistar rats fasted for 24 hours, according to the method described in Methods Cell Biol., 13 (1975), 29-83.
as §1
(§5) Quantification of the glucose is performed via a calorimetric method using glucose oxidase (IL test™ Glucose, Monarch 181633-80). The protein assay is performed on the rest of the incubation medium via the Lowry method (BIO-RAD Dc protein assay, BIO-RAD 5000116).
as §3

primary hepatocytes [3] = experiment: Hepatic glucose production, basal Lact/Pyr 2 hours, in primary hepatocytes (Table III-2); type: cell-based, Wistar rats
Procedure: as §4
2) The hepatocytes are cultured for 16 to 18 hours in RPMI 1640 medium free of glucose but supplemented with 1% glutamine, 100 U/mL penicillin, […] streptomycin and 7×10^−5 M hydrocortisone hemisuccinate.
as §2, §5, §3

[4] = Rattus norvegicus, Hepatocyte, 1 μM
[5] = Rattus norvegicus, Hepatocyte, 10 μM
[6] = Rattus norvegicus, Hepatocyte, 100 μM

SMILES: O=C(C[C@@H](Cc1ccccc1)C(=O)O)c1ccc(Cl)c(Cl)c1 (racemic) [Compound j, (R,S)-2-benzyl-4-(3′,4′-dichlorophenyl)-4-oxobutanoic acid]
inhibition of hepatic glucose production (hepatocytes; 1 μM): 30** %
inhibition of hepatic glucose production (hepatocytes; 10 μM): 51** %
inhibition of hepatic glucose production (hepatocytes; 100 μM): 65** %
inhibition of hepatic glucose production in vitro (in words) (hepatocytes): powerful inhibitors of hepatic glucose production in vitro

SMILES: O=C(CC(Sc1ccc2ccccc2c1)C(=O)O)c1ccccc1 (centres unmarked) [Ih-1, 2-(2′-naphthylthio)-4-phenyl-4-oxobutanoic acid]
percentage change in the glycaemia relative to D0, D4 (20 mg) (N0STZ rats): −12%
percentage change in the glycaemia relative to D0, D4 (200 mg) (N0STZ rats): −21%
percentage change in the glycaemia relative to D0, D1 (20 mg) (N0STZ rats): 7%
percentage change in the glycaemia relative to D0, D1 (200 mg) (N0STZ rats): 10%
HGP % of control (primary hepatocytes [2]; 1 μM): 103 % of control
HGP % of control (primary hepatocytes [2]; 10 μM): 83 % of control
HGP % of control (primary hepatocytes [2]; 100 μM): 15 % of control
HGP % of control (primary hepatocytes [3]; 1 μM): 110 % of control
HGP % of control (primary hepatocytes [3]; 10 μM): 127 % of control
HGP % of control (primary hepatocytes [3]; 100 μM): 75 % of control
inhibition of hepatic glucose production in vitro (in words) (hepatocytes): powerful inhibitors of hepatic glucose production in vitro

SMILES: O=C(CC(Sc1ccc(F)cc1)C(=O)O)c1ccccc1 (centres unmarked) [Ih-3, 2-(4′-fluorophenylthio)-4-phenyl-4-oxobutanoic acid]
percentage change in the glycaemia relative to D0, D4 (20 mg) (N0STZ rats): −19%
percentage change in the glycaemia relative to D0, D4 (200 mg) (N0STZ rats): −12%
percentage change in the glycaemia relative to D0, D1 (20 mg) (N0STZ rats): −3%
percentage change in the glycaemia relative to D0, D1 (200 mg) (N0STZ rats): 7%

SMILES: O=C(CC(SC1CCCCC1)C(=O)O)c1ccccc1 (centres unmarked) [Ih-7, 2-cyclohexylthio-4-phenyl-4-oxobutanoic acid]
melting point: 117 °C

SMILES: O=C(CC(SCc1ccccc1)C(=O)O)c1ccccc1 (centres unmarked) [Ih-8, 2-benzylthio-4-phenyl-4-oxobutanoic acid]
melting point: 143 to 146 °C

SMILES: COc1ccc(C(=O)CC(Sc2ccccc2)C(=O)O)cc1 (centres unmarked) [Ih-17, 2-phenylthio-4-(4′-methoxyphenyl)-4-oxobutanoic acid]
melting point: 121 to 125 °C

SMILES: COc1ccc(C(=O)CC(Sc2ccc(F)cc2)C(=O)O)cc1 (centres unmarked) [Ih-18, 2-(4′-fluorophenylthio)-4-(4′-methoxyphenyl)-4-oxobutanoic acid]
melting point: 108 to 110 °C

SMILES: COc1ccc(SC(CC(=O)c2ccc(OC)cc2)C(=O)O)cc1 (centres unmarked) [Ih-21, 2-(4′-methoxyphenylthio)-4-(4′-methoxyphenyl)-4-oxobutanoic acid]
melting point: 137 to 140 °C

SMILES: O=C(CC(Sc1ccccc1)C(=O)O)c1ccc(Cl)cc1 (centres unmarked) [Ih-25, 2-phenylthio-4-(4′-chlorophenyl)-4-oxobutanoic acid]
melting point: 166 to 169 °C

SMILES: Cc1ccc(SC(CC(=O)c2ccc(Cl)cc2)C(=O)O)cc1 (centres unmarked) [Ih-28, 2-(4′-methylphenylthio)-4-(4′-chlorophenyl)-4-oxobutanoic acid]
melting point: 151 to 153 °C

SMILES: COc1ccc(SC(CC(=O)c2ccc(Cl)cc2)C(=O)O)cc1 (centres unmarked) [Ih-29, 2-(4′-methoxyphenylthio)-4-(4′-chlorophenyl)-4-oxobutanoic acid]
melting point: 117 to 119 °C

SMILES: O=C(O)c1cc(=O)c2ccccc2[nH]1 [Kynurenic acid]
glucagon secretion (in words) [1]: stimulates
insulin secretion (in words) [1]: stimulates the secretion of insulin

SMILES: Nc1ccccc1C(=O)CC(N)C(=O)O (centres unmarked) [Kynurenine]
inhibition at 1 µM (hepatocytes; [4]): 2%
inhibition at 10 µM (hepatocytes; [5]): 4%
inhibition at 100 µM (hepatocytes; [6]): 25%
inhibition at 1000 µM (hepatocytes; Rattus norvegicus, Hepatocyte, 1000 μM): 78%
inhibition of hepatic glucose production in vitro (in words) (hepatocytes): powerful inhibitors of hepatic glucose production in vitro
glucagon secretion (in words) [1]: stimulated
insulin secretion (in words) [1]: stimulated

SMILES: COc1ccc2[nH]c(C(=O)O)cc2c1 [MICA, 5-methoxyindole-2-carboxylic acid]
inhibition at 10 µM (hepatocytes; [5]): 67%

SMILES: N[C@@H](Cc1c[nH]c2ccccc12)C(=O)O [Tryptophan]
inhibition at 10 µM (hepatocytes; [5]): 12%
inhibition at 100 µM (hepatocytes; [6]): 81%
inhibition of hepatic glucose production in vitro (in words) (hepatocytes): powerful inhibitors of hepatic glucose production in vitro
glucagon secretion (in words) [1]: stimulates glucagon secretion in a glucose-dependent manner
insulin secretion (in words) [1]: stimulates insulin secretion in a glucose-dependent manner

More lines, main results first:

IC50 (kynurenine 3-hydroxylase): 1000 ± 200 nM
SMILES: O=C(C[C@@H](Cc1ccccc1)C(=O)O)c1ccc(F)cc1 [Compound i, (R)-2-benzyl-4-(4-fluorophenyl)-4-oxobutanoic acid]
inhibition at 1 µM (hepatocytes; [4]): 13%
inhibition at 10 µM (hepatocytes; [5]): 28%
inhibition at 100 µM (hepatocytes; [6]): 62%
inhibition of hepatic glucose production in vitro (in words) (hepatocytes): powerful inhibitors of hepatic glucose production in vitro
glucagon secretion (in words) [1]: stimulation
insulin secretion (in words) [1]: stimulation

melting point: 132 to 135 °C
SMILES: O=C(CC(Sc1ccccc1)C(=O)O)c1ccccc1 (centres unmarked) [Ih-2, 2-phenylthio-4-phenyl-4-oxobutanoic acid]

melting point: 140 to 142 °C
SMILES: O=C(CC(Sc1ccc(Cl)cc1)C(=O)O)c1ccccc1 (centres unmarked) [Ih-4, 2-(4′-chlorophenylthio)-4-phenyl-4-oxobutanoic acid]

melting point: 132 to 134 °C
SMILES: Cc1ccc(SC(CC(=O)c2ccccc2)C(=O)O)cc1 (centres unmarked) [Ih-5, 2-(4′-methylphenylthio)-4-phenyl-4-oxobutanoic acid]

melting point: 116 to 118 °C
SMILES: COc1ccc(SC(CC(=O)c2ccccc2)C(=O)O)cc1 (centres unmarked) [Ih-6, 2-(4′-methoxyphenylthio)-4-phenyl-4-oxobutanoic acid]

melting point: 120 to 121 °C
SMILES: COc1ccc(C(=O)CC(Sc2ccc(Cl)cc2)C(=O)O)cc1 (centres unmarked) [Ih-19, 2-(4′-chlorophenylthio)-4-(4′-methoxyphenyl)-4-oxobutanoic acid]

melting point: 137 to 141 °C
SMILES: COc1ccc(C(=O)CC(Sc2ccc(C)cc2)C(=O)O)cc1 (centres unmarked) [Ih-20, 2-(4′-methylphenylthio)-4-(4′-methoxyphenyl)-4-oxobutanoic acid]

melting point: 120 to 122 °C
SMILES: COc1ccc(C(=O)CC(SC2CCCCC2)C(=O)O)cc1 (centres unmarked) [Ih-23, 2-cyclohexylthio-4-(4′-methoxyphenyl)-4-oxobutanoic acid]

melting point: 105 to 109 °C
SMILES: COc1ccc(C(=O)CC(SCc2ccccc2)C(=O)O)cc1 (centres unmarked) [Ih-24, 2-benzylthio-4-(4′-methoxyphenyl)-4-oxobutanoic acid]

melting point: 140 to 141 °C
SMILES: O=C(CC(Sc1ccc(F)cc1)C(=O)O)c1ccc(Cl)cc1 (centres unmarked) [Ih-26, 2-(4′-fluorophenylthio)-4-(4′-chlorophenyl)-4-oxobutanoic acid]

melting point: 154 to 156 °C
SMILES: O=C(CC(C(=O)O)c1ccc(Cl)cc1)c1ccc(Cl)cc1 (centres unmarked) [Ih-27, 2-(4′-chlorophenyl)-4-(4′-chlorophenyl)-4-oxobutanoic acid]
